{"source": "patent US20190105367A1", "about": "“ANTIMICROBIAL 4-OXOQUINOLIZINES” (Emergent Product Development Gaithersburg Inc., priority 2011, published 2019)", "key": {"[1]": {"test_system": "strains of A. baumannii and one strain of Acinetobacter sp.", "assay": "MIC with sub-inhibitory concentrations (0.25x MIC) of polymyxin B, panel of Acinetobacter strains (Example 4)", "assay_type": "cell-based"}, "A. baumannii ATCC 19606": {"test_system": "A. baumannii ATCC 19606", "assay": "MIC without and with sub-inhibitory polymyxin B (Example 4)", "assay_type": "cell-based, Acinetobacter baumannii", "conditions": "A. baumannii ATCC 19606"}, "A. baumannii J2 [2]": {"test_system": "A. baumannii J2", "assay": "MIC without and with sub-inhibitory polymyxin B (Example 4)", "assay_type": "cell-based, Acinetobacter baumannii", "conditions": "for MIC without PB/MIC + PB: A. baumannii J2; for MIC: Acinetobacter baumannii"}, "A. baumannii J2 [3]": {"test_system": "A. baumannii J2", "assay": "Preliminary MBC without and with sub-inhibitory polymyxin B (Example 4)", "assay_type": "cell-based, Acinetobacter baumannii", "conditions": "Acinetobacter baumannii, preliminary MBC"}, "[4]": {"test_system": "Acinetobacter sp. (H064200250)", "assay": "MIC without and with sub-inhibitory polymyxin B (Example 4)", "assay_type": "cell-based"}, "[5]": {"test_system": "Acinetobacter sp. (H064200250)", "assay": "Preliminary MBC without and with sub-inhibitory polymyxin B (Example 4)", "assay_type": "cell-based", "conditions": "Acinetobacter spp. H064200250 (OXA51); +[…] PB; preliminary MBC; 2nd experiment", "outline": "(§1)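 Incubation 18-20 h, 37° C. MBC = lowest conc. with ~90% fewer colonies than positive control (single/no colonies).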"}, "A. baumannii A329": {"test_system": "A. baumannii A329", "assay": "Preliminary MBC without and with sub-inhibitory polymyxin B (Example 4)", "assay_type": "cell-based, Acinetobacter baumannii", "conditions": "A. baumannii A329, +0.06 μg/ml PB, 2nd experiment"}, "A. baumannii A387 [6]": {"test_system": "A. baumannii A387", "assay": "MIC without and with sub-inhibitory polymyxin B (Example 4)", "assay_type": "cell-based, Acinetobacter baumannii", "conditions": "A. baumannii A387"}, "A. baumannii A387 [7]": {"test_system": "A. baumannii A387", "assay": "Preliminary MBC without and with sub-inhibitory polymyxin B (Example 4)", "assay_type": "cell-based, Acinetobacter baumannii", "conditions": "A. baumannii A387, +0.06 μg/ml PB, 2nd experiment"}, "A. baumannii A390 [8]": {"test_system": "A. baumannii A390", "assay": "MIC without and with sub-inhibitory polymyxin B (Example 4)", "assay_type": "cell-based, Acinetobacter baumannii", "conditions": "+0.06 μg/ml PB, 2nd experiment"}, "A. baumannii A14 [9]": {"test_system": "A. baumannii A14", "assay": "Preliminary MBC without and with sub-inhibitory polymyxin B (Example 4)", "assay_type": "cell-based, Acinetobacter baumannii", "conditions": "A. baumannii A14, +0.06 μg/ml PB, 2nd experiment", "outline": "as §1"}, "A. baumannii A390 [10]": {"test_system": "A. baumannii A390", "assay": "Preliminary MBC without and with sub-inhibitory polymyxin B (Example 4)", "assay_type": "cell-based, Acinetobacter baumannii", "conditions": "Acinetobacter baumannii, A390, A. baumannii A390, +0.06 μg/ml PB, 2nd experiment", "outline": "as §1"}, "A. baumannii A473 [11]": {"test_system": "A. baumannii A473", "assay": "Preliminary MBC without and with sub-inhibitory polymyxin B (Example 4)", "assay_type": "cell-based, Acinetobacter baumannii", "conditions": "A. baumannii A473, +0.06 μg/ml PB, 2nd experiment", "outline": "as §1"}, "A. baumannii NCTC 13301 [12]": {"test_system": "A. baumannii NCTC 13301", "assay": "Preliminary MBC without and with sub-inhibitory polymyxin B (Example 4)", "assay_type": "cell-based, Acinetobacter baumannii", "conditions": "Acinetobacter baumannii", "outline": "as §1"}, "A. baumannii A401 [13]": {"test_system": "A. baumannii A401", "assay": "MIC without and with sub-inhibitory polymyxin B (Example 4)", "assay_type": "cell-based, Acinetobacter baumannii", "conditions": "A baumannii A 401; ratio, PB 0.06 μg/ml; 1st experiment"}, "A. baumannii A401 [14]": {"test_system": "A. baumannii A401", "assay": "Preliminary MBC without and with sub-inhibitory polymyxin B (Example 4)", "assay_type": "cell-based, Acinetobacter baumannii", "conditions": "Acinetobacter baumannii"}, "A. baumannii A472 [15]": {"test_system": "A. baumannii A472", "assay": "MIC without and with sub-inhibitory polymyxin B (Example 4)", "assay_type": "cell-based, Acinetobacter baumannii", "conditions": "for MIC: Acinetobacter baumannii"}, "A. baumannii A472 [16]": {"test_system": "A. baumannii A472", "assay": "Preliminary MBC without and with sub-inhibitory polymyxin B (Example 4)", "assay_type": "cell-based, Acinetobacter baumannii", "conditions": "Acinetobacter baumannii, preliminary MBC"}, "A. baumannii A473 [17]": {"test_system": "A. baumannii A473", "assay": "MIC without and with sub-inhibitory polymyxin B (Example 4)", "assay_type": "cell-based, Acinetobacter baumannii", "conditions": "A. baumannii A473; +0.06 μg/ml PB; 2nd experiment"}, "A. baumannii A489": {"test_system": "A. baumannii A489", "assay": "MIC without and with sub-inhibitory polymyxin B (Example 4)", "assay_type": "cell-based, Acinetobacter baumannii", "conditions": "for MIC without PB/MIC + PB: A. baumannii A489; for MIC: Acinetobacter baumannii"}, "A. baumannii NCTC 13301 [18]": {"test_system": "A. baumannii NCTC 13301", "assay": "MIC without and with sub-inhibitory polymyxin B (Example 4)", "assay_type": "cell-based, Acinetobacter baumannii"}, "A. baumannii NCTC 13301 [19]": {"test_system": "A. baumannii NCTC 13301", "assay": "MIC without and with sub-inhibitory polymyxin B (Example 4)", "assay_type": "cell-based, Acinetobacter baumannii", "conditions": "+[…] PB, 2nd experiment"}, "A. baumannii A14 [20]": {"test_system": "A. baumannii A14", "assay": "MIC without and with sub-inhibitory polymyxin B (Example 4)", "assay_type": "cell-based, Acinetobacter baumannii", "conditions": "1st experiment"}, "[21]": {"conditions": "ratio, PB 0.06 μg/ml, 1st experiment"}}, "note": "Where two headings read alike, the source gives them in different places.", "data": [{"smiles": "COc1c(N2C[C@@H]3CCCN[C@@H]3C2)c(F)cc2c(=O)c(C(=O)O)cn(C3CC3)c12", "note": "[Moxifloxacin]", "values": [{"measurement": "Range ratios MIC without PB/MIC with PB Oct. 1, 2008 n = 8", "setting": "[1]; 1st experiment", "result": "0.5-4"}, {"measurement": "MIC range with PB (0.25x MIC) Oct. 1, 2008 n = 8", "setting": "[1]; 1st experiment, […] polymyxin B, ATCC 19606, A329, A390 and A473 not taken", "result": "4 to 128", "unit": "µg/mL"}, {"measurement": "Range ratios MIC without PB/MIC with PB Oct. 14, 2008 n = 11", "setting": "[1]; 2nd experiment", "result": "1-8"}, {"measurement": "MIC range with PB (0.25x MIC) Oct. 14, 2008 n = 11", "setting": "[1]; 2nd experiment, 0.06 μg/ml polymyxin B, all strains except the ATCC strain", "result": "4 to 32", "unit": "µg/mL"}, {"measurement": "MIC without PB/MIC + PB", "setting": "A. baumannii ATCC 19606; +0.06 μg/ml PB, 2nd experiment", "result": 2}, {"measurement": "MIC without PB/MIC + PB", "setting": "A. baumannii ATCC 19606; [21]", "result": 1}, {"measurement": "MIC without PB/MIC + PB", "setting": "A. baumannii J2 [2]; +[…] PB, 2nd experiment", "result": 4}, {"measurement": "MIC without PB/MIC + PB", "setting": "A. baumannii J2 [2]; ratio, PB […], 1st experiment", "result": 4}, {"measurement": "MIC", "setting": "A. baumannii J2 [2]; J2, A. baumannii J2, +[…] PB, 2nd experiment, read-out: MIC", "result": 8, "unit": "µg/mL"}, {"measurement": "MIC", "setting": "A. baumannii J2 [2]; J2, read-out: MIC +[…] PB, A. baumannii J2, +[…] polymyxin B, 1st experiment", "result": 8, "unit": "µg/mL"}, {"measurement": "MBC", "setting": "A. baumannii J2 [3]; J2, A. baumannii J2, +[…] PB, 2nd experiment", "result": 8, "unit": "µg/mL"}, {"measurement": "MBC", "setting": "A. baumannii J2 [3]; J2, read-out: MBC +[…] PB, A. baumannii J2, +[…] polymyxin B, 1st experiment", "result": 8, "unit": "µg/mL"}, {"measurement": "MIC without PB/MIC + PB", "setting": "[4]; Acinetobacter spp. H064200250 (OXA51), +[…] PB, 2nd experiment", "result": 1}, {"measurement": "MIC without PB/MIC + PB", "setting": "[4]; Acinetobacter spp. H064200250, ratio, PB […], 1st experiment", "result": 1}, {"measurement": "MBC", "setting": "[5]", "result": 16, "unit": "µg/mL"}, {"measurement": "MBC", "setting": "A. baumannii A329", "result": 32, "unit": "µg/mL"}, {"measurement": "MIC without PB/MIC + PB", "setting": "A. baumannii A387 [6]; +0.06 μg/ml PB, 2nd experiment", "result": 1}, {"measurement": "MIC without PB/MIC + PB", "setting": "A. baumannii A387 [6]; [21]", "result": 1}, {"measurement": "MBC", "setting": "A. baumannii A387 [7]", "result": 8, "unit": "µg/mL"}, {"measurement": "MIC without PB/MIC + PB", "setting": "A. baumannii A390 [8]; A. baumannii A390", "result": 2}, {"measurement": "MIC", "setting": "A. baumannii A390 [8]; Acinetobacter baumannii, A390, A. baumannii A390, read-out: MIC", "result": 8, "unit": "µg/mL"}, {"measurement": "MBC", "setting": "A. baumannii A14 [9]", "result": 16, "unit": "µg/mL"}, {"measurement": "MBC", "setting": "A. baumannii A390 [10]", "result": 8, "unit": "µg/mL"}, {"measurement": "MBC", "setting": "A. baumannii A473 [11]", "result": 8, "unit": "µg/mL"}, {"measurement": "MBC", "setting": "A. baumannii NCTC 13301 [12]; NCTC13301, A. baumannii NCTC 13301, +[…] PB, preliminary MBC, 2nd experiment", "result": 8, "unit": "µg/mL"}, {"measurement": "MBC", "setting": "A. baumannii NCTC 13301 [12]; NCTC13301, read-out: MBC +[…] PB", "result": 128, "unit": "µg/mL"}, {"measurement": "MIC without PB/MIC + PB", "setting": "A. baumannii A401 [13]", "result": 2}, {"measurement": "MBC", "setting": "A. baumannii A401 [14]; A401, A baumannii A 401, +0.06 μg/ml PB, 2nd experiment", "result": 8, "unit": "µg/mL"}, {"measurement": "MBC", "setting": "A. baumannii A401 [14]; A401, read-out: MBC +0.06 μg/ml PB, A baumannii A 401, +0.06 μg/ml polymyxin B, 1st experiment", "result": 8, "unit": "µg/mL"}, {"measurement": "MIC without PB/MIC + PB", "setting": "A. baumannii A472 [15]; A. baumannii A472, ratio, PB […], 1st experiment", "result": 0.5}, {"measurement": "MIC", "setting": "A. baumannii A472 [15]; A472, A. baumannii A472, +[…] PB, 2nd experiment, read-out: MIC", "result": 4, "unit": "µg/mL"}, {"measurement": "MIC", "setting": "A. baumannii A472 [15]; A472, read-out: MIC +[…] PB, A. baumannii A472, +[…] polymyxin B, 1st experiment", "result": 32, "unit": "µg/mL"}, {"measurement": "MBC", "setting": "A. baumannii A472 [16]; A472, A. baumannii A472, +[…] PB, 2nd experiment", "result": 4, "unit": "µg/mL"}, {"measurement": "MBC", "setting": "A. baumannii A472 [16]; A472, read-out: MBC +[…] PB, A. baumannii A472, +[…] polymyxin B, 1st experiment", "result": 4, "unit": "µg/mL"}, {"measurement": "MIC without PB/MIC + PB", "setting": "A. baumannii A473 [17]", "result": 1}, {"measurement": "MIC without PB/MIC + PB", "setting": "A. baumannii A489; +[…] PB, 2nd experiment", "result": 4}, {"measurement": "MIC without PB/MIC + PB", "setting": "A. baumannii A489; ratio, PB […], 1st experiment", "result": 4}, {"measurement": "MIC", "setting": "A. baumannii A489; A489, A. baumannii A489, +[…] PB, 2nd experiment, read-out: MIC", "result": 4, "unit": "µg/mL"}, {"measurement": "MIC", "setting": "A. baumannii A489; A489, read-out: MIC +[…] PB, A. baumannii A489, +[…] polymyxin B, 1st experiment", "result": 4, "unit": "µg/mL"}, {"measurement": "MIC without PB/MIC + PB", "setting": "A. baumannii NCTC 13301 [18]; A. baumannii NCTC 13301, ratio, PB […], 1st experiment", "result": 1}, {"measurement": "MIC", "setting": "A. baumannii NCTC 13301 [18]; Acinetobacter baumannii, NCTC13301, read-out: MIC +[…] PB", "result": 128, "unit": "µg/mL"}, {"measurement": "MIC without PB/MIC + PB", "setting": "A. baumannii NCTC 13301 [19]; A. baumannii NCTC 13301", "result": 8}, {"measurement": "MIC", "setting": "A. baumannii NCTC 13301 [19]; Acinetobacter baumannii, NCTC13301, A. baumannii NCTC 13301, read-out: MIC", "result": 8, "unit": "µg/mL"}, {"measurement": "MIC +0.06 μg/ml PB", "setting": "A. baumannii A14 [20]; +0.06 μg/ml polymyxin B", "result": 32, "unit": "µg/mL"}, {"measurement": "MIC without PB/MIC + PB", "setting": "A. baumannii A14 [20]; ratio, PB 0.06 μg/ml", "result": 1}]}]}
